Usually IC50 stands for the concentration that inhibits the measured activity by half.

In assay [1] the test system is FeLV. The settings on record: 30 mg treatment over 14 days; cited from earlier work.
For assay [2], the target named is T1, human plasma renin (Homo sapiens, UniProt P00797).
T1 construct: human plasma renin activity; from tissue; host or cells: human plasma
T1 sequence (P00797 67-406): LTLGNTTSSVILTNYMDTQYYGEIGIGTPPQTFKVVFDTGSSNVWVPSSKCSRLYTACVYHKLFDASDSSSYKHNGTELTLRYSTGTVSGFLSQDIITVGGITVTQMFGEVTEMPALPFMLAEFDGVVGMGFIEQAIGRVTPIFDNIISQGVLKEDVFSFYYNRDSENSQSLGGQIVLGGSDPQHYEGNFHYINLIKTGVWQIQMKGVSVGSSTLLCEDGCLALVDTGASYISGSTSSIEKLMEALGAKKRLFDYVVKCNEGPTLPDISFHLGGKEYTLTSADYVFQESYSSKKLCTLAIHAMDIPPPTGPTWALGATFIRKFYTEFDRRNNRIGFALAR
Briefly: Antibody-trapping method of Poulsen and Jorgensen, human plasma renin activity. In kind it is biochemical. The settings on record: antibody trapping test. The text has this:
In the antibody-trapping method of K. Poulsen and J. Jorgensen (J. Clin. Endocrin. Metab. 39, [1974] 816-825), they inhibit human plasma renin activity at a concentration of 10^-5 M to 10^-11 M.

With `Cc1cn([C@H]2C[C@H](N=[N+]=[N-])[C@@H](CO)O2)c(=O)[nH]c1=O` [3'-azido-3'-deoxy-thymidine], in assay [1], the cure entry was “no cure was achieved” and the “reduction of FeLV-titres by a factor” value is listed as 10.

Take `CCCC[C@H](NC(=O)[C@H](Cc1cccs1)NC(=O)COCCOCCOCCOC)C(=O)N[C@@H](CC1CCCCC1)[C@@H](O)CC(=O)N[C@@H](CC(C)C)C(=O)NCc1ccccn1` [Example 46, 3EG-Thala-Nle-Chatin-Leu-α-Pic]: in assay [2], half-maximal inhibition (IC50) required 1.5 nM, the highest inhibiting concentration is on record as 15 nM/l and the lowest inhibiting concentration is on record as 0,15 nM/l.

The values above are taken from patent US5045537A, “Hydrophilic renin inhibitors, their preparation and use” (Sandoz Ltd., priority 1987, dated 1991).
